Results on 14 compounds are retold here after publication PMC7967160, “Synthesis and Antiviral Evaluation of (1,4-Disubstituted-1,2,3-Triazol)-(E)-2-Methyl-but-2-Enyl Nucleoside Phosphonate Prodrugs” (Molecules, 2021).

Data set [1] relates to HBV. The data set can be described thus: HBV assay in Huh7 cells transfected with pCI_HBVpg1820, intracapsid viral DNA by real-time PCR. The class given is cell-based, hepatitis B virus (HBV). Particulars: for inhibition at 10 µM: Hepatitis B virus, Huh-7, 96 h. The protocol: In Huh7 cells: antiviral activity against HBV in cell culture was measured as previously described. Briefly, Huh7 cells were transfected with plasmid pCI_HBVpg1820 containing 1.1 unit of HBV genome under the control of a human cytomegalovirus (CMV) promoter. The drugs were stored at 1000× in DMSO at −20 °C. For each experiment, the drugs were diluted in DMEM cell culture medium (Thermo Fisher Scientific, Artenay, France) to a final concentration of 10 μM. All drugs were tested in triplicate in two independent experiments. After 4 days of culture, intracapsid viral DNA was quantified by duplex real-time PCR, using primers described elsewhere, on a LightCycler 480 II apparatus (Roche Diagnostics France, Meylan, France) using TaqMan Universal PCR Mastermix II without UNG (Thermo Fisher Scientific, Artenay, France). Cells were quantified using primers by real-time PCR, using primers HPRT1_F (5′-[…]) and HPRT1_R (5′-[…]), on a LightCycler 480 II apparatus (Roche) using a LightCycler® 480 SYBR Green I Master (Roche Diagnostics France, Meylan, France). Cycling reactions were performed with the following parameters: 5 min at 95 °C, followed by 45 cycles of 10 s at 95 °C, 15 s at 60 °C, 10 s at 72 °C. The inhibition of HBV replication (%) and cell culture viability (%) were quantified using the following formulas. Inhibition of HBV replication (%)=1− HBV DNA copy numberDrug/HBV DNA copy numberCell culture medium Cell viability (%)= HPRT1 DNA copy numberDrug/HPRT1 DNA copy numberCell culture medium

The subject of data set [2] is HBV. The data set can be described thus: HBV assay in HepAD38 cells, real-time PCR for HBV DNA in supernatant. Particulars: Hepatitis B virus, 168 h, 7 days. The class given is cell-based. The method, then:
In HepAD38 cells were seeded at 50,000 cells/well in collagen-coated 96-well plates. Test compounds or 2′,3′-didéoxy-3′-thiacytidin (3TC) (control) were added to HepAD38 cells to a final concentration of 10 μM.
Real-Time PCR for HBV DNA. The experiment lasted 7 days. On day 7, total DNA was purified from the supernatant using a commercially available kit (DNeasy 96 Blood & Tissue kit, Qiagen). The HBV DNA was amplified in a real-time PCR assay using a LightCycler 480 (Roche) as described elsewhere. All samples were tested in duplicate in two to three independent experiments. Analysis: The concentration of compound that inhibited HBV DNA replication by 50% (EC50) was determined by linear regression.
For orientation: In qPCR the cycle at which signal appears reflects the starting amount.

A further data set deals with HIV-1 LAI. The data set can be described thus: HIV assay in human PBM cells infected with HIV-1 LAI, RT quantification. The class given is cell-based. Particulars: for inhibition at 10 µM: Human immunodeficiency virus 1, PBMC, PBM cells, HIV-1 LAI. The protocol: The assay was performed as described by Schinazi et al. with minor modifications. […] The supernatants were harvested, and the HIV-1 RT was quantified.

The next data set is described as follows: in vitro. The settings on record: human; PBM cells; read-out: MTS Cytotoxicity (IC50, μM) PBM. The data set is classed as cell-based. The protocol:
(§1) Assays were performed in human peripheral blood mononuclear (PBM) and human liver (HepG2) cells via MTS assay using the CellTiter 96® Non-Radioactive Cell Proliferation (Promega) kit as previously described^3. Cytotoxicity was expressed as the concentration of test compounds that inhibited cell proliferation by 50% (IC50) and calculated using the Chou and Talalay method.

Data set [3] is described as follows: Cytotoxicity MTS assay in HepG2 cells. The settings on record: human. The class given is cell-based. The protocol:
as §1
(In general: Formazan colour is commonly taken as a measure of viable cells.)

The subject of data set [4] is SARS-CoV-2 strain BavPat1. The data set can be described thus: SARS-CoV-2 assay in Vero E6 cells (CellTiter-Blue). The settings on record: 10 μM. (In general: Resazurin is reduced to fluorescent resorufin, in cell work by metabolically active cells.)
Data set [5] in a line: Cell culture viability in the Huh7 HBV assay (HPRT1 DNA copy number). Particulars: human.
The mark [6] stands for this setting: read-out: HBV % Inhibition Huh7, 10 μM, Huh7 cells, 4 days.
[7] abbreviates: 10 μM, Huh7 cells, 4 days, read-out: HBV % Inhibition Huh7.

What is called inhibition is the change of the read-out against control, counted positive when it falls. A word on the IC50: it is the concentration that inhibits the measured activity by half. For orientation: viability means a read-out of living cells in per cent, often relative to untreated cells. Higher therefore signals better survival. Take `CCCCCCCc1ccc(-c2cn(C/C(C)=C/CP(=O)(OCOC(=O)OC(C)C)OCOC(=O)OC(C)C)nn2)cc1` [Compound 11e, [[(E)-4-[4-(4-Heptylphenyl)triazol-1-yl]-3-methyl-but-2-enyl]-(isopropoxycarbonyloxymethoxy)phosphoryl]oxymethyl isopropyl carbonate]: in the data set with HBV [1] (10 μM, Huh7 cells, 4 days), the “HBV % Inhibition Huh7” value worked out at 50%. The inhibition at 10 µM with HBV [1] (setting [6]) is greater than 40%; with HBV [2] it was 33.5%; in the data set with HIV-1 LAI it was 29.9%. Also, the values for the concentration for half-maximal inhibition (IC50) (in “in vitro”; in data set [3]) were 9.2 µM and 90.8 µM, respectively. Besides, the “SARS-CoV-2 % Inhibition Vero E6” value in data set [4] is recorded as less than 1%. The viability at 4 days, 10 µM in data set [5] stood at 95%.

As to `C/C(=C\CP(=O)(OCOC(=O)OC(C)C)OCOC(=O)OC(C)C)Cn1cc(-c2ccc([N+](=O)[O-])cc2)nn1` [Compound 11l, [[(E)-4-(4-Nitrophenyltriazol-1-yl)-3-methyl-but-2-enyl]-(isopropoxycarbonyloxymethoxy)phosphoryl]oxymethyl isopropyl carbonate], the “HBV % Inhibition Huh7” value with HBV [1] (10 μM, Huh7 cells, 4 days) turned out to be 40%. In addition, the results for the inhibition at 10 µM in the data set on HBV [1] (setting [6]), in the data set on HBV [2] and in the data set with HIV-1 LAI were greater than 40%, 42.6% and 38.8%, respectively. Also, the “anti-HBV activity in words” value in the data set with HBV [1] (compared to entecavir (Huh7) and lamivudine (HepAd38)) was “good activity”. Besides, the half-inhibitory concentration (IC50) turned out to be 23.5 µM in the data set “in vitro” and 85.3 µM in data set [3]. In addition, in data set [4], the “SARS-CoV-2 % Inhibition Vero E6” value came to 10%. The viability at 4 days, 10 µM in data set [5] turned out to be 100%.

As for `CCNC(=O)c1cn(C/C(C)=C/CP(=O)(OCOC(=O)OC(C)C)OCOC(=O)OC(C)C)nn1` [Compound 11q, [[(E)-4-[4-(Ethylcarbamoyl)triazol-1-yl]-3-methyl-but-2-enyl]-(isopropoxycarbonyloxymethoxy)phosphoryl]oxymethyl isopropyl carbonate], the values for the inhibition at 10 µM in the data set with HBV [1] (setting [7]), in the data set on HBV [2] and with HIV-1 LAI were less than 1%, less than 1% and 31.2%, respectively. The IC50 in “in vitro” was 80.6 µM; in data set [3], greater than 100 µM. In addition, the “SARS-CoV-2 % Inhibition Vero E6” value in data set [4] is listed as less than 1%. In data set [5], the viability at 4 days, 10 µM worked out at 90%.

As for `CCCCCCc1ccc(-c2cn(C/C(C)=C/CP(=O)(OCOC(=O)OC(C)C)OCOC(=O)OC(C)C)nn2)cc1` [Compound 11d, [[(E)-4-[4-(4-Hexylphenyl)triazol-1-yl]-3-methyl-but-2-enyl]-(isopropoxycarbonyloxymethoxy)phosphoryl]oxymethyl isopropyl carbonate], the inhibition at 10 µM with HBV [1] (setting [7]) was found to be 39%; with HBV [2], 38.8%; with HIV-1 LAI it was 41.8%. Moreover, the concentration for half-maximal inhibition (IC50) was determined as 23.7 µM in “in vitro” and 59.6 µM in data set [3]. For the same compound, the “SARS-CoV-2 % Inhibition Vero E6” value in data set [4] is less than 1%. In addition, the viability at 4 days, 10 µM in data set [5] amounted to 100%.

As for `CCCCCCCCCCCCCCCCOCCCOP(=O)(C/C=C(\C)Cn1cc(C(N)=O)nn1)OCOC(=O)OC(C)C` (stereo not drawn) [Compound 15j, [[(E)-4-(4-Carbamoyltriazol-1-yl)-3-methyl-but-2-enyl]-(3-hexadecyloxypropoxy)phosphoryl]oxymethyl isopropyl carbonate], the inhibition at 10 µM is 62% in the data set with HBV [1] (setting [7]), less than 1% in the data set with HBV [2] and 32.2% with HIV-1 LAI. Besides, the results for the IC50 (in the data set “in vitro”; in data set [3]) were 43.1 µM and 66.4 µM, respectively. In addition, in data set [4], the “SARS-CoV-2 % Inhibition Vero E6” value was less than 1%. In data set [5], this compound displayed a viability at 4 days, 10 µM of 74%.

Regarding `CCCc1ccc(-c2cn(C/C(C)=C/CP(=O)(OCOC(=O)OC(C)C)OCOC(=O)OC(C)C)nn2)cc1` [Compound 11a, [[(E)-4-[4-(4-Propylphenyl)triazol-1-yl]-3-methyl-but-2-enyl]-(isopropoxycarbonyloxymethoxy)phosphoryl]oxymethyl isopropyl carbonate], the “HBV % Inhibition Huh7” value with HBV [1] (10 μM, Huh7 cells, 4 days) is reported as 51%. The inhibition at 10 µM in the data set on HBV [1] (setting [6]) is greater than 40%; with HBV [2], 19.6%; with HIV-1 LAI, less than 1%. The figures for the IC50 (in the data set “in vitro”; in data set [3]) were 50.2 µM and 18.3 µM, respectively. The “SARS-CoV-2 % Inhibition Vero E6” value in data set [4] is reported as less than 1%. The same compound yielded a viability at 4 days, 10 µM in data set [5] of 96%.

With `C/C(=C\CP(=O)(OCOC(=O)OC(C)C)OCOC(=O)OC(C)C)Cn1cc(C2CC2)nn1` [Compound 11f, [[(E)-4-(4-Cyclopropyltriazol-1-yl)-3-methyl-but-2-enyl]-(isopropoxycarbonyloxymethoxy)phosphoryl]oxymethyl isopropyl carbonate], the inhibition at 10 µM is less than 1% in the data set with HBV [1] (setting [7]), 36.3% in the data set on HBV [2] and 30.7% in the data set on HIV-1 LAI. Further, the IC50 in “in vitro” was 25.5 µM; in data set [3], greater than 100 µM. For the same compound, the “SARS-CoV-2 % Inhibition Vero E6” value in data set [4] is on record as less than 1%. The viability at 4 days, 10 µM in data set [5] turned out to be 100%.

Consider `C[C@@H]1C[C@@H]([C@H](O)CC2CC(=O)NC(=O)C2)C(=O)[C@@H](C)C1` [cycloheximide, reference compound], for which the IC50 was 1 µM in “in vitro” and 1.5 µM in data set [3].

Consider `CCC(CC)COC(=O)[C@H](C)N[P@](=O)(OC[C@H]1O[C@@](C#N)(c2ccc3c(N)ncnn23)[C@H](O)[C@@H]1O)Oc1ccccc1` [Remdesivir, reference compound], for which the “SARS-CoV-2 % Inhibition Vero E6” value in data set [4] turned out to be 100%.

Regarding `CCCCCCCCCCCCCCCCOCCCOP(=O)(C/C=C(\C)Cn1cc(-c2ccc([N+](=O)[O-])cc2)nn1)OCOC(=O)OC(C)C` (stereo not drawn) [Compound 15l, [3-Hexadecyloxypropoxy-[(E)-3-methyl-4-[4-(nitrophenyl)triazol-1-yl]but-2-enyl]phosphoryl]oxymethyl isopropyl carbonate], in the data set with HBV [1] (setting [7]), the inhibition at 10 µM is 12%. The “SARS-CoV-2 % Inhibition Vero E6” value in data set [4] is given as less than 1%. The compound also came in with a viability at 4 days, 10 µM in data set [5] of 100%.

`C/C(=C\CP(=O)(OCOC(=O)OC(C)C)OCOC(=O)OC(C)C)Cn1cc(C(=O)O)nn1` [Compound 11m, 1-[(E)-4-[Bis(isopropoxycarbonyloxymethoxy)phosphoryl]-2-methyl-but-2-enyl]triazole-4-carboxylic acid]: the inhibition at 10 µM with HBV [1] (setting [7]) turned out to be 12%; with HBV [2], 41.3%; in the data set with HIV-1 LAI, 12.9%. Further, the IC50 in data set [3] was greater than 100 µM. Also, in data set [4], the “SARS-CoV-2 % Inhibition Vero E6” value was less than 1%. In addition, in data set [5], the viability at 4 days, 10 µM amounted to 57%.

Consider `CCCCCCCCCCCCCCCCOCCCOP(=O)(C/C=C(\C)Cn1cc(-c2ccc(CCC)cc2)nn1)OCOC(=O)OC(C)C` (stereo not drawn) [Compound 15a, [3-Hexadecyloxypropoxy-[(E)-3-methyl-4-[4-(4-propylphenyl]triazol-1-yl]but-2-enyl]phosphoryl]oxymethyl isopropyl carbonate], for which the inhibition at 10 µM with HBV [1] (setting [7]) was less than 1%. The “SARS-CoV-2 % Inhibition Vero E6” value in data set [4] is on record as less than 1%. This compound also yielded a viability at 4 days, 10 µM in data set [5] of 95%.

Regarding `CCCCCCCCCCCCCCCCOCCCOP(=O)(C/C=C(\C)Cn1cc(-c2ccc(CCCCCCC)cc2)nn1)OCOC(=O)OC(C)C` (stereo not drawn) [Compound 15e, [3-Hexadecyloxypropoxy-[(E)-3-methyl-4-[4-(heptylphenyl)triazol-1-yl]but-2-enyl]phosphoryl]oxymethyl isopropyl carbonate], in the data set on HBV [1] (setting [7]), the inhibition at 10 µM turned out to be 8%. Further, the “SARS-CoV-2 % Inhibition Vero E6” value in data set [4] is less than 1%. The same compound returned a viability at 4 days, 10 µM in data set [5] of 100%.

Usually EC50 stands for the concentration giving half of the maximal effect. As for `Cc1cn([C@H]2C[C@H](N=[N+]=[N-])[C@@H](CO)O2)c(=O)[nH]c1=O` [AZT, reference compound], the concentration for a half-maximal effect (EC50) with HIV-1 LAI (positive control, data not shown, read-out: EC50 anti-HIV) is 0.008 µM.
